This passage reports Ki results from US8859546B2, “Picolinamide inhibitors of kinases” (AbbVie Inc., priority 2011, dated 2014).

T1 sequence (Q9UM73 19-1620): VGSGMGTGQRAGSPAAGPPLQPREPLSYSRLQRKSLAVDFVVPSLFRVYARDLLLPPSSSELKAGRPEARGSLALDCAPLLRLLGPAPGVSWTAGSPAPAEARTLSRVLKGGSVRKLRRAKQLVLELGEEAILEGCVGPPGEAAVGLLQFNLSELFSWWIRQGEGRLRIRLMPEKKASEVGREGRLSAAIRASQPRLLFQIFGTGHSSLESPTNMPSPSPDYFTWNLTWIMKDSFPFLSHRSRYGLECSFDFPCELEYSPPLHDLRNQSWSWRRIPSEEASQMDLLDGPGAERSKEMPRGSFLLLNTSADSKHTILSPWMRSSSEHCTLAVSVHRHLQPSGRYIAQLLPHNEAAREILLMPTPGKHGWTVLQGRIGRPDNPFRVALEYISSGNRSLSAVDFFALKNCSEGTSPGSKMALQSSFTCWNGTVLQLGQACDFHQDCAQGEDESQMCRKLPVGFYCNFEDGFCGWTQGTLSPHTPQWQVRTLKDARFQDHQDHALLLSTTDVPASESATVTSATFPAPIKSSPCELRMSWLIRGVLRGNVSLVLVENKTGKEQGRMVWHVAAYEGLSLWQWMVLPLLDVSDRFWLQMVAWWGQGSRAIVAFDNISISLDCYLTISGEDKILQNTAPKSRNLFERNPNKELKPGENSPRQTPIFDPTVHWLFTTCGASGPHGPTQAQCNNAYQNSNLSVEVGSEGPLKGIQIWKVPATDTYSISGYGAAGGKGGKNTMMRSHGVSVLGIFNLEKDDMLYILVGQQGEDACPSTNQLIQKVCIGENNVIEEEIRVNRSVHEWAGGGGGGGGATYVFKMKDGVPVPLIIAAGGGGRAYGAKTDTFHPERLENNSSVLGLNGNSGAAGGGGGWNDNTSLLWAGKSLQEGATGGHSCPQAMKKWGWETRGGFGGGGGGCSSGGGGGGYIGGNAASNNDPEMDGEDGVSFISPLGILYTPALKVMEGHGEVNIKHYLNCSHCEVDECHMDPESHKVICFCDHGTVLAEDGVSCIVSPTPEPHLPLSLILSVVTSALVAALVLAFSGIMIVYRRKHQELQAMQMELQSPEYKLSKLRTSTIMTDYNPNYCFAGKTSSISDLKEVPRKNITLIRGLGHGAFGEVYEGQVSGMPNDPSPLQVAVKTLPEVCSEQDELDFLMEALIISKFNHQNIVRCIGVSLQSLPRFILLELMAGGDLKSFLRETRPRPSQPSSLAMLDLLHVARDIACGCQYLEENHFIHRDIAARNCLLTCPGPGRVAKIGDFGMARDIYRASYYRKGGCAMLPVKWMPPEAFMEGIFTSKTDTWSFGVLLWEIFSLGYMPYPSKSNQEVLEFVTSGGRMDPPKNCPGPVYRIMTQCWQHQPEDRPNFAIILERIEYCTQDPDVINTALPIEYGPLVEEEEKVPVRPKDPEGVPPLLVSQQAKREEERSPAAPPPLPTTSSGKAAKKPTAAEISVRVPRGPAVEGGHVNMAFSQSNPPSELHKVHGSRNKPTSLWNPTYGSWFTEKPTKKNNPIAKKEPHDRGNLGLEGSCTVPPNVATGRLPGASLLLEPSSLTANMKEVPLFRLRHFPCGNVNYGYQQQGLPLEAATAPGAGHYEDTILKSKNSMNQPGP

The experiment addresses T1, ALK (Homo sapiens, UniProt Q9UM73).
T1 construct: purchased Millipore
Put plainly: ALK kinase assay (HTRF), apparent Ki. The class given is biochemical. As to conditions: apparent Ki from IC50 by Cheng-Prusoff; ALK (Millipore), 50 μM ATP; read-out: HTRF_ALK Human-Ki. On the procedure: The following procedure is used to determine ALK Activity.
ALK kinase assays were conducted with the indicated final concentrations unless otherwise specified. In 384 well black plates (Axygen), 8 μl of compound (2% DMSO) was incubated with 8 μl Lck-peptide substrate (0.5 μM, biotin-Ahx-GAEEEIYAAFFA-COOH) and 8 μl of a mixture of ALK (3 nM, Millipore) and ATP (50 μM) in reaction buffer (50 mM Hepes, pH 7.4; 10 mM MgCl2; 2 mM MnCl2; 0.1 mM sodium orthovanadate; 0.01% BSA and 1 mM DTT (added fresh before assay) for 1 h at room temperature. Reactions were then quenched by the addition of 30 μl quench solution (streptavidin-allophycocyanin and Europium-cryptate PT66 monoclonal antibody in 40 mM Hepes, pH 7.4; 480 mM KF; 66 mM EDTA; 0.01% Tween-20; and 0.1% BSA) at room temperature. Plates were read 1 h after quenching on an Envision Multilaber Reader and IC50 values were calculated using a sigmoidal fit of the concentration/inhibition response curves. These values were converted to apparent Ki values using the Cheng-Prusoff relationship.
Alternatively, 4 nM ALK (Millipore) and 50 μM ATP were pre-incubated for 30 min at room temperate in 384 well plates (Corning 3676) in 2.5× reaction buffer (125 nM SEB from Cisbio Bioassays, 12.5 mM MgCl2, 5 mM MnCl2, and 2.5 mM DTT). Reactions were initiated by the addition of 4 μl ALK-ATP mixture to 2 μl compounds (2% DMSO) and 4 μl TK-substrate biotin (Cisbio Bioassays). After incubation for 1 h at room temperature, reactions were quenched in 10 μl stop buffer (Cisbio detection buffer containing Streptavididn-XL665 and Eu-Cryptate PT66 monoclonal antibody). Plates were read 1 h after quenching on an Envision Multilaber Reader and IC50 values were calculated using a sigmoidal fit of the concentration/inhibition response curves. These values were converted to apparent Ki values using the Cheng-Prusoff relationship. Results are shown in Table 1 A correlates to an Ki=<100 nM, B correlates to an Ki between 100 nM and 1 μM, C correlates to an Ki=>1 μM.
On the technique in general: TR-FRET usually uses a lanthanide donor and a delayed reading to cut background.
As to `COc1cc(N2CCN(C)CC2)ccc1Nc1cc(-c2cccc(NS(C)(=O)=O)c2)cnc1C(N)=O` [Example 57, 3-{[2-methoxy-4-(4-methylpiperazin-1-yl)phenyl]amino}-5-{3-[(methylsulfonyl)amino]phenyl}pyridine-2-carboxamide], the Ki fell in the range of 100 to 1000 nM. Regarding `CC(c1cccc(F)c1)c1cnc(C(N)=O)c(Nc2ccc(N3CCN(C)CC3)c(Cl)c2)c1` (centres unmarked) [Example 36, 3-{[3-chloro-4-(4-methylpiperazin-1-yl)phenyl]amino}-5-[1-(3-fluorophenyl)ethyl]pyridine-2-carboxamide], the Ki lay in the range of 100 to 1000 nM. For the compound `CN1CCN(c2ccc(Nc3cc(Nc4ccccc4)cnc3C(N)=O)cc2)CC1` [Example 70, 5-anilino-3-{[4-(4-methylpiperazin-1-yl)phenyl]amino}pyridine-2-carboxamide], the Ki fell in the range of 100 to 1000 nM. Regarding `CN1CCN(c2ccc(Nc3cc(Cc4ccc(F)cc4)cnc3C(N)=O)cc2)CC1` [Example 12, 5-(4-fluorobenzyl)-3-{[4-(4-methylpiperazin-1-yl)phenyl]amino}pyridine-2-carboxamide], the Ki was in the range of 100 to 1000 nM. Regarding `NC(=O)c1ncc(Cc2c(Cl)cccc2Cl)cc1Nc1ccc(N2CCNCC2)cc1` [Example 39, 5-(2,6-dichlorobenzyl)-3-{[4-(piperazin-1-yl)phenyl]amino}pyridine-2-carboxamide], the Ki is less than 100 nM. To `CN1CCN(c2ccc(Nc3cc(-c4cccc(NS(=O)(=O)C5CC5)c4)cnc3C(N)=O)cc2)CC1` [Example 66, 5-{3-[(cyclopropylsulfonyl)amino]phenyl}-3-{[4-(4-methylpiperazin-1-yl)phenyl]amino}pyridine-2-carboxamide] belongs 100 to 1000 nM.

As to `CN1CCN(c2ccc(Nc3cc(-c4cccc(NS(=O)(=O)c5cccs5)c4)cnc3C(N)=O)cc2)CC1` [Example 68, 3-{[4-(4-methylpiperazin-1-yl)phenyl]amino}-5-{3-[(2-thienylsulfonyl)amino]phenyl}pyridine-2-carboxamide], the Ki is less than 100 nM. To `CN1CCN(c2ccc(Nc3cc(-c4ccccc4Cl)cnc3C(N)=O)cc2)CC1` [Example 58, 5-(2-chlorophenyl)-3-{[4-(4-methylpiperazin-1-yl)phenyl]amino}pyridine-2-carboxamide] belongs 100 to 1000 nM. Regarding `CN1CCN(c2ccc(Nc3cc(-c4cn[nH]c4)cnc3C(N)=O)cc2)CC1` [Example 63, 3-{[4-(4-methylpiperazin-1-yl)phenyl]amino}-5-(1H-pyrazol-4-yl)pyridine-2-carboxamide], the Ki was more than 1000 nM.

Consider `CN1CCN(c2ccc(Nc3cc(-c4ccccc4NS(C)(=O)=O)cnc3C(N)=O)cc2)CC1` [Example 55, 3-{[4-(4-methylpiperazin-1-yl)phenyl]amino}-5-{2-[(methylsulfonyl)amino]phenyl}pyridine-2-carboxamide], for which the Ki was in the range of 100 to 1000 nM. Turning to `CN1CCN(c2ccc(Nc3cc(Cc4cccc(F)c4)cnc3C(N)=O)cc2)CC1` [Example 14, 5-(3-fluorobenzyl)-3-{[4-(4-methylpiperazin-1-yl)phenyl]amino}pyridine-2-carboxamide], the Ki is less than 100 nM.

`CN1CCN(c2ccc(Nc3cc(Cc4c(Cl)cccc4Cl)cnc3C(N)=O)cc2)CC1` [Example 31, 5-(2,6-dichlorobenzyl)-3-{[4-(4-methylpiperazin-1-yl)phenyl]amino}pyridine-2-carboxamide]: the Ki is less than 100 nM. With `C=C(c1ccccc1)c1cnc(C(N)=O)c(Nc2ccc(N3CCN(C)CC3)cc2)c1` [Example 10, 3-{[4-(4-methylpiperazin-1-yl)phenyl]amino}-5-(1-phenylvinyl)pyridine-2-carboxamide] the figure was 100 to 1000 nM; with `CN1CCN(c2ccc(Nc3cc(CC4CCCCC4)cnc3C(N)=O)cc2)CC1` [Example 5, 5-(cyclohexylmethyl)-3-{[4-(4-methylpiperazin-1-yl)phenyl]amino}pyridine-2-carboxamide], 100 to 1000 nM.
